Laboratory results published in patent publication US20110039795A1, “2'-O,3'-N-BRIDGED MACROLIDES” (priority 2008, published 2011).

System: CD1 mice
Assay: Phorbol 12-myristate 13-acetate induced ear edema in CD1 mice
Format: in vivo
Conditions: Mus musculus, topical, 6 h; applied topically once in a dose 500 μg/ear; PMA induced ear edema
Method: Phorbol 12-Myristate 13-Acetate Induced Ear Edema in CD1 Mice
Male CD1 mice (Charles River, France) weighing 30-40 g are randomly grouped (n=8 in test group of which the untreated ear serves as negative control; 8 in positive control group which also serves as their own negative control group). Test compounds, as well as vehicle (Trans-phase Delivery system, containing benzyl alcohol 10%, acetone 40% and isopropanol 50%) (all from Kemika, Croatia), are administered topically to the internal surface of the left ear 30 minutes prior to administration of phorbol 12-myristate 13-acetate (PMA) (Sigma, USA). Test compounds are administered at a dose 500 μg in 15 μL per ear. 30 minutes later, 0.01% PMA solution in acetone is applied topically to the inner surface of the left ear of each animal in a volume of 12 μL per ear. During the treatment and challenge, animals are anesthetized with anesthesia by inhalation. 6 h following challenge, animals are euthanized by intraperitoneal thiopental injection (PLIVA, Croatia). For assessing the auricular edema, 8 mm discs are cut out of left and right auricular pinna and weighed. The degree of edema is calculated by subtracting the weight of 8 mm disc of the untreated ear from that of the treated contralateral ear. The inhibition of edema in the treated animals is expressed as percentage compared to control mice.

Row | SMILES | inhibition in vivo at 500 µg/ear [%]
1 | CC[C@H]1OC(=O)[C@H](C)[C@@H](O[C@H]2C[C@@](C)(OC)[C@@H](O)[C@H](C)O2)[C@H](C)[C@@H](O[C@@H]2O[C@H](C)C[C@H]3[C@H]2OC(=NCc2ccccc2)N3C)[C@](C)(O)C[C@@H](C)CN(C)[C@H](C)[C@@H](O)[C@]1(C)O (single isomer, unassigned) [Example 1, N′-Benzyl-2′-O,3′-N-(carbonimidoyl)-3′-N-demethyl-9-deoxo-9a-methyl-9a-aza-9a-homoerythromycin A] | > 50
2 | CC[C@H]1OC(=O)[C@H](C)[C@@H](O[C@H]2C[C@@](C)(OC)[C@@H](O)[C@H](C)O2)[C@H](C)[C@@H](O[C@@H]2O[C@H](C)C[C@H]3[C@H]2OC(=Nc2cccc4ccccc24)N3C)[C@](C)(O)C[C@@H](C)CN(C)[C@H](C)[C@@H](O)[C@]1(C)O (single isomer, unassigned) [Example 2, 2′-O,3′-N-(Carbonimidoyl)-3′-N-demethyl-9-deoxo-9a-methyl-N′-(1-naphthyl)-9a-aza-9a-homoerythromycin A] | > 50
3 | CC[C@H]1OC(=O)[C@H](C)[C@@H](O[C@H]2C[C@@](C)(OC)[C@@H](O)[C@H](C)O2)[C@H](C)[C@@H](O[C@@H]2O[C@H](C)C[C@H]3[C@H]2OC(=NC(C)C)N3C)[C@](C)(O)C[C@@H](C)CN(C)[C@H](C)[C@@H](O)[C@]1(C)O (single isomer, unassigned) [Example 3, 2′-O,3′-N-(Carbonimidoyl)-3′-N-demethyl-9-deoxo-N′-isopropyl-9a-methyl-9a-aza-9a-homoerythromycin A] | > 50
4 | CC[C@H]1OC(=O)[C@H](C)[C@@H](O[C@H]2C[C@@](C)(OC)[C@@H](O)[C@H](C)O2)[C@H](C)[C@@H](O[C@@H]2O[C@H](C)C[C@H]3[C@H]2OC(=NC(C)C)N3C)[C@](C)(OC)C[C@@H](C)C(=O)N[C@H](C)[C@@H](O)[C@]1(C)O (single isomer, unassigned) [Example 7, 2′-O,3′-N-(Carbonimidoyl)-3′-N-demethyl-N′-isopropyl-6-O-methyl-9a-aza-9a-homoerythromycin A] | > 50
5 | CC[C@H]1OC(=O)[C@H](C)[C@@H](O[C@H]2C[C@@](C)(OC)[C@@H](O)[C@H](C)O2)[C@H](C)[C@@H](O[C@@H]2O[C@H](C)C[C@H]3[C@H]2OC(=NCCCN(CC)CC)N3C)[C@](C)(OC)C[C@@H](C)C(=O)N[C@H](C)[C@@H](O)[C@]1(C)O (single isomer, unassigned) [Example 8, 2′-O,3′-N-(Carbonimidoyl)-3′-N-demethyl-N′-[3-(diethylamino)propyl]-6-O-methyl-9a-aza-9a-homoerythromycin A] | > 50
6 | CC[C@H]1OC(=O)[C@H](C)[C@@H](O[C@H]2C[C@@](C)(OC)[C@@H](O)[C@H](C)O2)[C@H](C)[C@@H](O[C@@H]2O[C@H](C)C[C@H]3[C@H]2OC(=NC(C)C)N3C)[C@](C)(OC)C[C@@H](C)C(=O)[C@H](C)[C@@H](O)[C@]1(C)O (single isomer, unassigned) [Example 11, 2′-O,3′-N-(Carbonimidoyl)-3′-N-demethyl-N′-isopropyl-6-O-methyl-erythromycin A] | > 50
7 | CC[C@H]1OC(=O)[C@H](C)[C@@H](O[C@H]2C[C@@](C)(OC)[C@@H](O)[C@H](C)O2)[C@H](C)[C@@H](O[C@@H]2O[C@H](C)C[C@H]3[C@H]2O/C(=N/CCCN(CC)CC)N3C)[C@](C)(OC)C[C@@H](C)C(=O)[C@H](C)[C@@H](O)[C@]1(C)O (single isomer, unassigned) [Example 12, 2′-O,3′-N-(Carbonimidoyl)-3′-N-demethyl-N′-[3-(diethylamino)propyl]-6-O-methyl-erythromycin A] | > 50
8 | CC[C@H]1OC(=O)[C@H](C)[C@@H](O[C@H]2C[C@@](C)(OC)[C@@H](O)[C@H](C)O2)[C@H](C)[C@@H](O[C@@H]2O[C@H](C)C[C@H]3[C@H]2OC(=NC)N3C)[C@](C)(OC)C[C@@H](C)C(=O)[C@H](C)[C@@H](O)[C@]1(C)O (single isomer, unassigned) [Example 13, 2′-O,3′-N-(Carbonimidoyl)-3′-N-demethyl-N′-methyl-6-O-methyl-erythromycin A] | > 50
9 | CCN=C1O[C@H]2[C@H](O[C@@H]3[C@@H](C)[C@H](O[C@H]4C[C@@](C)(OC)[C@@H](O)[C@H](C)O4)[C@@H](C)C(=O)O[C@H](CC)[C@@](C)(O)[C@H](O)[C@@H](C)C(=O)[C@H](C)C[C@@]3(C)OC)O[C@H](C)C[C@@H]2N1C (single isomer, unassigned) [Example 14, 2′-O,3′-N-(Carbonimidoyl)-3′-N-demethyl-N′-ethyl-6-O-methyl-erythromycin A] | > 50
10 | CCN=C1O[C@H]2[C@H](O[C@@H]3[C@@H](C)[C@H](O[C@H]4C[C@@](C)(OC)[C@@H](O)[C@H](C)O4)[C@@H](C)C(=O)O[C@H](CC)[C@@](C)(O)[C@H](O)[C@@H](C)NC(=O)[C@H](C)C[C@@]3(C)OC)O[C@H](C)C[C@@H]2N1C (single isomer, unassigned) [Example 15, 2′-O,3′-N-(Carbonimidoyl)-3′-N-demethyl-N′-ethyl-6-O-methyl-9a-aza-9a-homoerythromycin A] | > 50
